The record followed here is patent US10800791B2, “Triazole ACC inhibitors and uses thereof” (Gilead Apollo, LLC, priority 2015, dated 2020).

In brackets after ≈: the same amount, converted by molar mass. Like-named read-outs stand apart in the source and are kept apart here.

The target in one assay is human (hACC2) (Homo sapiens, UniProt O00763). Put plainly: In vitro ACC inhibition assay (ADP-Glo), hACC2. The format is biochemical. The settings on record: Table 2b, additional results, 5 nM ACC2, 20 μM ATP, 20 μM acetyl-CoA. The method, then: The detailed procedure is as follows. […] 10 μL ADP glo reagent was added. […] 20 μL kinase detection reagent was added.
Chain of human (hACC2) (O00763 whole entry): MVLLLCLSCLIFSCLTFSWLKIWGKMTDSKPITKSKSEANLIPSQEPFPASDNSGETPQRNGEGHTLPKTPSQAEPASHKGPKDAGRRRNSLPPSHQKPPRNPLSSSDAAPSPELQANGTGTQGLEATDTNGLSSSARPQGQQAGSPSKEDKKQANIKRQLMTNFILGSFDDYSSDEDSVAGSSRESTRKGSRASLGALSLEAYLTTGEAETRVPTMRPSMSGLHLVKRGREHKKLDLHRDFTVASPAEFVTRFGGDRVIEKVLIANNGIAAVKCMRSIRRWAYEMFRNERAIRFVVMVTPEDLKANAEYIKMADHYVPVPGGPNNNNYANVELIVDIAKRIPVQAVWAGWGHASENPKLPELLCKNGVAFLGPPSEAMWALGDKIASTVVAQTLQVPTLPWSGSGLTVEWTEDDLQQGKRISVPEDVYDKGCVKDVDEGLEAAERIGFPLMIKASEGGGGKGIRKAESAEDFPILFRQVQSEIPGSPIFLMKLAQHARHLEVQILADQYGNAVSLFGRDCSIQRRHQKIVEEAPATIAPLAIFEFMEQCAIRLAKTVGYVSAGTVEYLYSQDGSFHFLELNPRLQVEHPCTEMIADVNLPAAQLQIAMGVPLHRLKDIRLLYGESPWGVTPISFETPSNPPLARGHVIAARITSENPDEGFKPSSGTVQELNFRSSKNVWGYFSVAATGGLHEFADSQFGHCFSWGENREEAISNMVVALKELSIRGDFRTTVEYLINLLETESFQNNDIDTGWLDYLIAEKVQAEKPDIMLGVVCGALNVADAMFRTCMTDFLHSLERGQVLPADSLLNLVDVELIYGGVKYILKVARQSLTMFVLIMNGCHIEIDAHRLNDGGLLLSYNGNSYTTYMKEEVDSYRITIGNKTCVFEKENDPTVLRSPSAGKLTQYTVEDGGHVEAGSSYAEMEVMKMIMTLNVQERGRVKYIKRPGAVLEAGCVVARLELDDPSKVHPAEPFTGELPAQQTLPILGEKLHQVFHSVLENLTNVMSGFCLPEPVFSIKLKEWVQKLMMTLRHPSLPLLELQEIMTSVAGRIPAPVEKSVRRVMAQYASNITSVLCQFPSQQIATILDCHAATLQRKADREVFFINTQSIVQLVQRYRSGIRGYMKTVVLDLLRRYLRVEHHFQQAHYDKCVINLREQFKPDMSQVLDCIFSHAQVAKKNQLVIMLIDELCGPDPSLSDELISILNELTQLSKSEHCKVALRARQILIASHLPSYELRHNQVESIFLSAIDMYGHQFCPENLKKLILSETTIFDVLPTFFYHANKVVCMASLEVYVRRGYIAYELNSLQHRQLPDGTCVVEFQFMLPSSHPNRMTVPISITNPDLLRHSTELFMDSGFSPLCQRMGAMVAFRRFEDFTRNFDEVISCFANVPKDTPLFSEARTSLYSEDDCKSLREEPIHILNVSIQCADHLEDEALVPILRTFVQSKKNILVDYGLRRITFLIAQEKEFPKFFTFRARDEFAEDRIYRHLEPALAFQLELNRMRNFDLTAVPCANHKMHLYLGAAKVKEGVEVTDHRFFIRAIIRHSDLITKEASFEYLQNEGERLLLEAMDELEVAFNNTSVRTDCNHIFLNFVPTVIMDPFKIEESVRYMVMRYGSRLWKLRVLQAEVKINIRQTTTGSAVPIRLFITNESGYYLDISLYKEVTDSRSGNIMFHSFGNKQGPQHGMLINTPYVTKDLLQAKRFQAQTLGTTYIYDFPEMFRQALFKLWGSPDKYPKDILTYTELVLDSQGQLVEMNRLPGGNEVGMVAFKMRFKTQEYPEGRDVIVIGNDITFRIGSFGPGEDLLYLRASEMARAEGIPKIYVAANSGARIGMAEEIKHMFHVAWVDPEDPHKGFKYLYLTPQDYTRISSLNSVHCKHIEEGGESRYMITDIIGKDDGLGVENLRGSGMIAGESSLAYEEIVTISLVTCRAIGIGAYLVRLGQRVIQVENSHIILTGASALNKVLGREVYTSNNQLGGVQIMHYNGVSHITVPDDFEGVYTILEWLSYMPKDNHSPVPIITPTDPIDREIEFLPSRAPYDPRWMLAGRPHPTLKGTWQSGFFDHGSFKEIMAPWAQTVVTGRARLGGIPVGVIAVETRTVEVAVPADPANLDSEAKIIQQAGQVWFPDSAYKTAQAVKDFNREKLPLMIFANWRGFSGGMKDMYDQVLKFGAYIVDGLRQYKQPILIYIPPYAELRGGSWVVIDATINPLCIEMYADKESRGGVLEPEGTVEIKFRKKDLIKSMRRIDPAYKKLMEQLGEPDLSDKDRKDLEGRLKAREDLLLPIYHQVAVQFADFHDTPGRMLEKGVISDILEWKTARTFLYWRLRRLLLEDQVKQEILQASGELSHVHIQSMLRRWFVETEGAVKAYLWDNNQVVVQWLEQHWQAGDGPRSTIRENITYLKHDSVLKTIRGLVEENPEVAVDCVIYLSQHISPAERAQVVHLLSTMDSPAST
A further assay has as its system C. albicans. Put plainly: Antifungal Activity Assay (broth microtiter MIC), C. albicans. In kind it is cell-based, Candida albicans. The settings on record: Candida albicans, ATCC90028, 48 h. In short, it runs like this: (§1)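 Susceptibility was determined by CLSI M27-A3 broth microdilution in RPMI 1640 buffered with MOPS. Growth inhibition was scored visually after 48 h.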

The test system of a further assay is C. krusei. Put plainly: Antifungal Activity Assay (broth microtiter MIC), C. krusei. In kind it is cell-based, Candida krusei. The settings on record: Pichia kudriavzevii, ATCC6258, 48 h. Put shortly:
as §1

Another assay has as its system C. parapsilosis. Put plainly: Antifungal Activity Assay (broth microtiter MIC), C. parapsilosis. In kind it is cell-based, Candida parapsilosis. The settings on record: Lodderomyces parapsilosis, ATCC22019, 48 h. Put shortly: as §1
Another assay deals with Botrtyis cinerea (Bc). Put plainly: Growth inhibition assay of fungal pathogens, Bc. The format is cell-based. The settings on record: 48 h, growth inhibition at 48 hours vs 2% DMSO control. Put shortly: (§2)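 Spores from sub-cultured plates were diluted in 17% V8 liquid medium and exposed to compound from DMSO stocks at final concentrations of 50, 10 and 2 ppm or 2, 0.4 and 0.08 ppm. OD600 and visual ratings at 48 h were compared with the 2% DMSO control to give percent growth inhibition.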

The test system of assay [1] is Collectotrichum graminicola (Cg). Put plainly: Growth inhibition assay of fungal pathogens, Cg. In kind it is cell-based. The settings on record: 48 h, growth inhibition at 48 hours vs 2% DMSO control. In short, it runs like this:
as §2

The next assay has as its system Diplodia maydis (Dm). Put plainly: Growth inhibition assay of fungal pathogens, Dm. The settings on record: Stenocarpella maydis, 48 h, growth inhibition at 48 hours vs 2% DMSO control. In kind it is cell-based. Put shortly:
as §2

The subject of assay [2] is Fusarium moniliforme (Fm). Put plainly: Growth inhibition assay of fungal pathogens, Fm. The format is cell-based. The settings on record: Fusarium verticillioides, 48 h, read-out: Concentration at 90% Inhibition Fm. In short, it runs like this:
as §2

Assay [3] deals with Fusarium virguliforme (Fv). Put plainly: Growth inhibition assay of fungal pathogens, Fv. The settings on record: 48 h. In kind it is cell-based. Put shortly:
as §2

Assay [4] has as its system Phytophthora capsici (Pc). Put plainly: Growth inhibition assay of fungal pathogens, Pc. The format is cell-based. The settings on record: 48 h. Put shortly:
as §2

The test system of another assay is Rhizoctonia solani (Rs). Put plainly: Growth inhibition assay of fungal pathogens, Rs. In kind it is cell-based. The settings on record: 48 h.
In the next assay the test system is Septoria tritici (St). Put plainly: Growth inhibition assay of fungal pathogens, St. The format is cell-based. The settings on record: Zymoseptoria tritici, 48 h, growth inhibition at 48 hours vs 2% DMSO control. Put shortly: as §2
The target of a further assay is fungal (fACC2) (UniProt Q00955). The settings on record: read-out: fACC2 (in vitro ACC2 Inhibition Assay, IC50); Table 2b, additional results; ADP-Glo, 5 nM ACC2, 20 μM ATP, 20 μM acetyl-CoA. A general note: ADP-Glo turns the ADP formed in a reaction into a luminescent signal.
Chain of fungal (fACC2) (Q00955 whole entry): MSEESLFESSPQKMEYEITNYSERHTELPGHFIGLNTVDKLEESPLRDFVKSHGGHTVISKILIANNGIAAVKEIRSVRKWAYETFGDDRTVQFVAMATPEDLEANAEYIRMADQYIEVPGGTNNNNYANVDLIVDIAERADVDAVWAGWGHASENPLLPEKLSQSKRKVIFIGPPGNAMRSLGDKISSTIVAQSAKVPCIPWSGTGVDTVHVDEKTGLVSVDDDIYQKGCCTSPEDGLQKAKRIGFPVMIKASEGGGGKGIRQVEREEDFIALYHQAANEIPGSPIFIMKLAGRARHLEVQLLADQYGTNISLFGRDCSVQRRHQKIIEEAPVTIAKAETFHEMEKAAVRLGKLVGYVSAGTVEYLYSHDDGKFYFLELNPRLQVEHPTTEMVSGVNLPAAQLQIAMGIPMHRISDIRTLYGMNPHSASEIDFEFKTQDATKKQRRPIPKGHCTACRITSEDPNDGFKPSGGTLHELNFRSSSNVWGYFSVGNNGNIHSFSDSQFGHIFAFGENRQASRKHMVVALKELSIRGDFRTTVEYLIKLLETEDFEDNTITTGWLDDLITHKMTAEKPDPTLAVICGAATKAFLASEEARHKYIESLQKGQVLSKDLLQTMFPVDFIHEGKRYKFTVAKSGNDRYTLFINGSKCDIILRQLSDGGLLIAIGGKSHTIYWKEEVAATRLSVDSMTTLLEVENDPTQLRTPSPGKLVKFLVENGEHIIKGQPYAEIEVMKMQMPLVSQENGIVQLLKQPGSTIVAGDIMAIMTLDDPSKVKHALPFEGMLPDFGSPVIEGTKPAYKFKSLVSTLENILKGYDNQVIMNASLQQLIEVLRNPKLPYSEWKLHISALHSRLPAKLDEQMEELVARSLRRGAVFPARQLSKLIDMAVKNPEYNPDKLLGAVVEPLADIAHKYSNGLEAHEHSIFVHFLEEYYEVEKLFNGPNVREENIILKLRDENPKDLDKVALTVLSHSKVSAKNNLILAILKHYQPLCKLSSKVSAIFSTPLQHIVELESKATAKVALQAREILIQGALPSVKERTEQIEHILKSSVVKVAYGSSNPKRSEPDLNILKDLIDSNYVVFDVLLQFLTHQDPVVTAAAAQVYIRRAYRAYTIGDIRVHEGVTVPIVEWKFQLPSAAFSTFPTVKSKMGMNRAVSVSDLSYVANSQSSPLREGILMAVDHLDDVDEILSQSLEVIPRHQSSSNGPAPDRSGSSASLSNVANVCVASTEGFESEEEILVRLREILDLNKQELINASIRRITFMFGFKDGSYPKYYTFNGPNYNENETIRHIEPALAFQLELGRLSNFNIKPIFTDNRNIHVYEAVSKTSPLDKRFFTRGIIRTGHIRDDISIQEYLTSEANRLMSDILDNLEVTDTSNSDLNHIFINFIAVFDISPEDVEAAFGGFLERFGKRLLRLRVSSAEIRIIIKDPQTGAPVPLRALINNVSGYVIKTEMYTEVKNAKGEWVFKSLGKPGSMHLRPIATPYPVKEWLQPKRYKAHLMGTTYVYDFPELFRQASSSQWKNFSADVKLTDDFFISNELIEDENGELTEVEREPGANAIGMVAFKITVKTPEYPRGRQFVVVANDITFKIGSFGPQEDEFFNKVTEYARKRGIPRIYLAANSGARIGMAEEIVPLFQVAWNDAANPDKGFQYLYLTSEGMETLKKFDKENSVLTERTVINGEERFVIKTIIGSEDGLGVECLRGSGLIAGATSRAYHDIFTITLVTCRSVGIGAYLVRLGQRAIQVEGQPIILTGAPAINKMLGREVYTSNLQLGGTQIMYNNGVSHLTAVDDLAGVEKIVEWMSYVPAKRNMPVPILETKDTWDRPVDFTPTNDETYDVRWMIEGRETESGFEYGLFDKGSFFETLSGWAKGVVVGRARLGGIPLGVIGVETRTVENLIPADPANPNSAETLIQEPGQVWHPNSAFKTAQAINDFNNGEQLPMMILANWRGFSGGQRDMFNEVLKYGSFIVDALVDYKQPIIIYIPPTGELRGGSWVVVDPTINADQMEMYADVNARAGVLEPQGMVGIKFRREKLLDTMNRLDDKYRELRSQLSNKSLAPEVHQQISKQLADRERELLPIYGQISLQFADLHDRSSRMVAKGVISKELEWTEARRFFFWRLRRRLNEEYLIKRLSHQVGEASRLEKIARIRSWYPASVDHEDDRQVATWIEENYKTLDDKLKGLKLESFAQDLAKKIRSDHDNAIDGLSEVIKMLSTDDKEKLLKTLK
Setting [5] is: Table 3b (additional results), ATCC 90028, 3 replicates, MIC recorded at 48 h, read-out: MIC, C. albicans ATCC 90028.
Setting [6] is: Table 3b (additional results), ATCC 6258, 3 replicates, MIC recorded at 48 h, read-out: MIC, C. krusei ATCC 6258.
[7] abbreviates: Table 3b (additional results), ATCC 22019, 3 replicates, MIC recorded at 48 h, read-out: MIC, C. parapsilosis ATCC 22019.
Setting [8] is: Botrtyis cinerea, read-out: Concentration at 90% Inhibition Bc.
The mark [9] stands for this setting: Collectotrichum graminicola, read-out: Concentration at 90% Inhibition Cg.
[10] abbreviates: Diplodia maydis, read-out: Concentration at 90% Inhibition Dm.
Where [11] appears, read: Fusarium moniliforme, growth inhibition at 48 hours vs 2% DMSO control.
[12] abbreviates: growth inhibition at 48 hours vs 2% DMSO control, read-out: Concentration at 90% Inhibition Fv.
Setting [13] is: growth inhibition at 48 hours vs 2% DMSO control, read-out: Concentration at 90% Inhibition Pc.
[14] abbreviates: mycelial plugs, growth inhibition at 48 hours vs 2% DMSO control, read-out: Concentration at 90% Inhibition Rs.
The mark [15] stands for this setting: Septoria tritici, read-out: Concentration at 90% Inhibition St.

Consider `CCNC(=O)C(C)(C)n1c(=O)c2c(C)c(-n3nccn3)sc2n(C[C@H](O)c2cc(F)ccc2OC)c1=O` [Compound I-255], for which the IC50 against human (hACC2) fell in the range of 10 to 40 nM; on fungal (fACC2), 0.3 to 1 nM. The MIC in the assay with C. albicans (setting [5]), with C. krusei (setting [6]) and with C. parapsilosis (setting [7]) was 2.01 to 4 µg/mL (≈ 3.79 to 7.54 µM) throughout. For the same compound, the IC90 with Botrtyis cinerea (Bc) (setting [8]) was 2 µg/mL (≈ 3.77 µM); in assay [1] (setting [9]), 2 µg/mL (≈ 3.77 µM); in the assay on Diplodia maydis (Dm) (setting [10]), 2 µg/mL (≈ 3.77 µM); in assay [2] (setting [11]) it was 0.08 µg/mL (≈ 0.151 µM); in [3] (setting [12]), 0.4 µg/mL (≈ 0.754 µM); in [4] (setting [13]), over 50 µg/mL. Also, the IC90 in the assay with Rhizoctonia solani (Rs) (setting [14]) was 0.4 µg/mL (≈ 0.754 µM); in the assay on Septoria tritici (St) (setting [15]) it was over 50 µg/mL.
`COc1ccccc1[C@@H](O)Cn1c(=O)n(C(C)(C)C(=O)NC(C)C)c(=O)c2c(C)c(-n3nccn3)sc21` [Compound I-256]: the half-inhibitory concentration (IC50) on human (hACC2) is 5 to 10 nM; on fungal (fACC2) it was 1 to 5 nM. For the same compound, the MIC in the assay on C. albicans (read-out: MIC, C. albicans ATCC 90028, Table 3b (additional results), 3 replicates, MIC recorded at 48 h) was in the range of 1.01 to 2 µg/mL (≈ 1.92 to 3.8 µM); in the assay on C. krusei (read-out: MIC, C. krusei ATCC 6258, Table 3b (additional results), 3 replicates, MIC recorded at 48 h), 0.25 to 1 µg/mL (≈ 0.475 to 1.9 µM); in the assay with C. parapsilosis (read-out: MIC, C. parapsilosis ATCC 22019, Table 3b (additional results), 3 replicates, MIC recorded at 48 h), 0.25 to 1 µg/mL (≈ 0.475 to 1.9 µM). Further, the IC90 was 0.4 µg/mL (≈ 0.76 µM) in the assay on Botrtyis cinerea (Bc) (read-out: Concentration at 90% Inhibition Bc, Botrtyis cinerea); 2 µg/mL (≈ 3.8 µM) in assay [1] (read-out: Concentration at 90% Inhibition Cg, Collectotrichum graminicola); 2 µg/mL (≈ 3.8 µM) with Diplodia maydis (Dm) (read-out: Concentration at 90% Inhibition Dm, Diplodia maydis); 0.08 µg/mL (≈ 0.152 µM) in assay [2]; 0.08 µg/mL (≈ 0.152 µM) in assay [3] (read-out: Concentration at 90% Inhibition Fv, Fusarium virguliforme, growth inhibition at 48 hours vs 2% DMSO control); 10 µg/mL (≈ 19 µM) in assay [4] (read-out: Concentration at 90% Inhibition Pc, Phytophthora capsici, growth inhibition at 48 hours vs 2% DMSO control). For the same compound, the IC90 is 0.08 µg/mL (≈ 0.152 µM) in the assay on Rhizoctonia solani (Rs) (read-out: Concentration at 90% Inhibition Rs, Rhizoctonia solani, mycelial plugs, growth inhibition at 48 hours vs 2% DMSO control) and over 50 µg/mL in the assay with Septoria tritici (St) (read-out: Concentration at 90% Inhibition St, Septoria tritici).
For the compound `CCNC(=O)C(C)(C)n1c(=O)c2c(C)c(-n3nccn3)sc2n(C[C@H](OC(C)=O)c2cc(F)ccc2OC)c1=O` [Compound I-257], the figures for the IC50 against human (hACC2) and at fungal (fACC2) were over 40 nM and 5 to 10 nM, respectively. The MIC in the assay with C. albicans (setting [5]) fell in the range of 2.01 to 4 µg/mL (≈ 3.51 to 6.99 µM); in the assay with C. krusei (setting [6]) it was 1.01 to 2 µg/mL (≈ 1.76 to 3.49 µM); in the assay with C. parapsilosis (setting [7]) it was 2.01 to 4 µg/mL (≈ 3.51 to 6.99 µM). The IC90 in the assay on Botrtyis cinerea (Bc) (setting [8]) was over 50 µg/mL; in assay [1] (setting [9]), over 50 µg/mL; in the assay with Diplodia maydis (Dm) (setting [10]) it was over 50 µg/mL; in assay [2] (setting [11]) it was 10 µg/mL (≈ 17.5 µM); in [3] (setting [12]) it was over 50 µg/mL; in assay [4] (setting [13]) it was over 50 µg/mL. Moreover, the IC90 with Rhizoctonia solani (Rs) (setting [14]) and in the assay with Septoria tritici (St) (setting [15]) was over 50 µg/mL throughout.
Take `COc1ccc(F)cc1[C@H](Cn1c(=O)n(C(C)(C)C(=O)NC(C)C)c(=O)c2c(C)c(-n3nccn3)sc21)OC(C)=O` [Compound I-258]: the 50% inhibitory concentration (IC50) is over 40 nM on human (hACC2) and 5 to 10 nM at fungal (fACC2). Besides, the minimum inhibitory concentration (MIC) in the assay on C. albicans (setting [5]) is 0.25 to 1 µg/mL (≈ 0.426 to 1.7 µM); with C. krusei (setting [6]), 0.25 to 1 µg/mL (≈ 0.426 to 1.7 µM); in the assay on C. parapsilosis (setting [7]), 1.01 to 2 µg/mL (≈ 1.72 to 3.41 µM). For the same compound, the IC90 in the assay on Botrtyis cinerea (Bc) (setting [8]) is 10 µg/mL (≈ 17 µM); in assay [1] (setting [9]), over 50 µg/mL; with Diplodia maydis (Dm) (setting [10]) it was over 50 µg/mL; in [2] (setting [11]), 10 µg/mL (≈ 17 µM); in assay [3] (setting [12]), 10 µg/mL (≈ 17 µM); in assay [4] (setting [13]), over 50 µg/mL. In addition, the IC90 in the assay with Rhizoctonia solani (Rs) (setting [14]) and with Septoria tritici (St) (setting [15]) was over 50 µg/mL throughout.
As for `CCNC(=O)C(C)(C)n1c(=O)c2c(C)c(-n3nccn3)sc2n(C[C@@H](OC(C)=O)c2cc(F)ccc2OC)c1=O` [Compound I-260], the IC50 is 10 to 40 nM against human (hACC2) and 0.3 to 1 nM at fungal (fACC2). The MIC in the assay with C. albicans (setting [5]) fell in the range of 2.01 to 4 µg/mL (≈ 3.51 to 6.99 µM); in the assay with C. krusei (setting [6]), 1.01 to 2 µg/mL (≈ 1.76 to 3.49 µM); with C. parapsilosis (setting [7]), 2.01 to 4 µg/mL (≈ 3.51 to 6.99 µM). For the same compound, the IC90 with Botrtyis cinerea (Bc) (setting [8]) was 2 µg/mL (≈ 3.49 µM); in assay [1] (setting [9]) it was 10 µg/mL (≈ 17.5 µM); in the assay with Diplodia maydis (Dm) (setting [10]), 10 µg/mL (≈ 17.5 µM); in assay [2] (setting [11]), 0.4 µg/mL (≈ 0.699 µM); in assay [3] (setting [12]), 2 µg/mL (≈ 3.49 µM); in assay [4] (setting [13]), over 50 µg/mL. Also, the IC90 is 2 µg/mL (≈ 3.49 µM) in the assay on Rhizoctonia solani (Rs) (setting [14]) and over 50 µg/mL with Septoria tritici (St) (setting [15]).

In general, IC50 refers to the concentration that inhibits the measured activity by half. A word on the MIC: it is the lowest concentration that inhibits growth of the organism.
